Assay results reported in patent publication US10758534B2 (Vertex Pharmaceuticals Incorporated, priority 2014, dated 2020).

The compounds below were run against T1, F508del (Homo sapiens, UniProt P13569, DEL508-508) (assay: Protocol 1: membrane potential optical assay (FLIPR III, voltage sensing dye), identification of potentiator compounds). Settings: Table 3, compounds of Table 1.
T1 construct: expressed in transfected cells
T1 sequence (P13569 with tags, fused parts or gaps DEL508-508): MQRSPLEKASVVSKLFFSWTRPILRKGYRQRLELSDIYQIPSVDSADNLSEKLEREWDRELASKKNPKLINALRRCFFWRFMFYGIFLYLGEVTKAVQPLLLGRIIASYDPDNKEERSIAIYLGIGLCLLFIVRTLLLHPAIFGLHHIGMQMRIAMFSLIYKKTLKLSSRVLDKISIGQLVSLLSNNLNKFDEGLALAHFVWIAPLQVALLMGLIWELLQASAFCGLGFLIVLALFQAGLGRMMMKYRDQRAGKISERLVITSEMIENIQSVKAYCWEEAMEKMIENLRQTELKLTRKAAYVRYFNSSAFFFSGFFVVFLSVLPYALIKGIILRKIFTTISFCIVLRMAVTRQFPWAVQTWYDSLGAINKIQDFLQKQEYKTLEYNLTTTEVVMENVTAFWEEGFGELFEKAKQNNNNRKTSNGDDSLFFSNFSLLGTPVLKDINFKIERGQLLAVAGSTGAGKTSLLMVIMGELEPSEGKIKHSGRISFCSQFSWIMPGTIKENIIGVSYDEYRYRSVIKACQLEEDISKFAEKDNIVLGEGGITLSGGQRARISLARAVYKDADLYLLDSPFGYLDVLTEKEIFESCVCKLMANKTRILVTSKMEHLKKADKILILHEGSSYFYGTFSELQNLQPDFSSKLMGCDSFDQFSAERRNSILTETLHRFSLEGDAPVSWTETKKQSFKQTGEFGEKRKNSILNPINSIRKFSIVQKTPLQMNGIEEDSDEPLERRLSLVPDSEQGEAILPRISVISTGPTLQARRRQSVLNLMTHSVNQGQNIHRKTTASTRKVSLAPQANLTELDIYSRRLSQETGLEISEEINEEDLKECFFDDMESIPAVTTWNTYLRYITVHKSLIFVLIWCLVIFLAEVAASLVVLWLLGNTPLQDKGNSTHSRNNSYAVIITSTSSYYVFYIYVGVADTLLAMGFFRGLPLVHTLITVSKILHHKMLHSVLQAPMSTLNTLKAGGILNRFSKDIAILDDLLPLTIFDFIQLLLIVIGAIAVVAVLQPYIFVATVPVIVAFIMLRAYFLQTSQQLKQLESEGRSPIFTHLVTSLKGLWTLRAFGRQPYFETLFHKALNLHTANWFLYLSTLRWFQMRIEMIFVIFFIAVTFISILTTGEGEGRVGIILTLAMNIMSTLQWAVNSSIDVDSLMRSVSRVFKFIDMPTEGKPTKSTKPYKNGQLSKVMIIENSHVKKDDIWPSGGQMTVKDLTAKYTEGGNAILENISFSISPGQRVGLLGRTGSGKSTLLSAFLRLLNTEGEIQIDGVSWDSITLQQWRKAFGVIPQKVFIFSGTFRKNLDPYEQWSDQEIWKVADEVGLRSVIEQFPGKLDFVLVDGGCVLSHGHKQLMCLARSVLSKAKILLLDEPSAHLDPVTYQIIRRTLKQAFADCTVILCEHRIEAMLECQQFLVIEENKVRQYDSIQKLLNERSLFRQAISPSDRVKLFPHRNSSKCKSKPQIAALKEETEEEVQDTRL
Type: cell-based
Summary of the method: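 Read-out: change in voltage-sensing dye fluorescence (FLIPR III) as a measure of F508del conductance. Temperature-corrected (27° C, 24 hrs) NIH 3T3 cells expressing F508del are pretreated with potentiators, dye-loaded, then stimulated with forskolin under a chloride ion gradient using chloride-free gluconate bath.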
In the case of CC(C)COc1cc(F)cc(-c2ccc(C(=O)NS(=O)(=O)c3cccc(N)n3)c(N3CCC(C)(C)CC3)n2)c1 [Compound 1279, N-[(6-amino-2-pyridyl)sulfonyl]-2-(4,4-dimethyl-1-piperidyl)-6-(3-fluoro-5-isobutoxy-phenyl)pyridine-3-carboxamide], the EC30 was “+++ (“+++” means <3 uM)”. For C[C@@H]1CN(c2nc(-c3cccc(F)c3)ccc2C(=O)NS(=O)(=O)c2ccc[nH]c2=O)C(C)(C)C1 [Compound 1925, 6-(3-fluorophenyl)-N-[(2-oxo-1H-pyridin-3-yl)sulfonyl]-2-[(4S)-2,2,4-trimethylpyrrolidin-1-yl]pyridine-3-carboxamide], the EC30 was “+++ (“+++” means <3 uM)”. COc1cc(F)c(F)cc1-c1ccc(C(=O)NS(=O)(=O)c2ccc[nH]c2=O)c(N2C[C@@H](C)CC2(C)C)n1 [Compound 1904, 6-(4,5-difluoro-2-methoxy-phenyl)-N-[(2-oxo-1H-pyridin-3-yl)sulfonyl]-2-[(4S)-2,2,4-trimethylpyrrolidin-1-yl]pyridine-3-carboxamide] was tested, and the EC30 was “+++ (“+++” means <3 uM)”. CC1CN(c2ncccc2C(=O)NS(=O)(=O)c2cccc(Oc3ccc4cccnc4c3)n2)C(C)(C)C1 (centres unmarked) [Compound 1875, N—[[6-(7-quinolyloxy)-2-pyridyl]sulfonyl]-2-(2,2,4-trimethylpyrrolidin-1-yl)pyridine-3-carboxamide] was tested, and the EC30 was “++ (“++” means between 3 uM and 10 uM)”. In the case of COc1ncccc1S(=O)(=O)NC(=O)c1ccc(-c2ccccc2)nc1Oc1c(C)cc(C)cc1C [Compound 939, N-[(2-methoxy-3-pyridyl)sulfonyl]-6-phenyl-2-(2,4,6-trimethylphenoxy)pyridine-3-carboxamide], the EC30 was “+++ (“+++” means <3 uM)”. CCOCCc1ccc(C(=O)NS(=O)(=O)c2cccc(N)n2)c(Oc2c(C)cc(C)cc2C)n1 [Compound 929, N-[(6-amino-2-pyridyl)sulfonyl]-6-(2-ethoxyethyl)-2-(2,4,6-trimethylphenoxy)pyridine-3-carboxamide] was tested, and the EC30 was “++ (“++” means between 3 uM and 10 uM)”. With CC1CN(c2ncccc2C(=O)NS(=O)(=O)c2cccc(OCc3cccc(C(F)(F)F)c3)n2)C(C)(C)C1 (centres unmarked) [Compound 1953, N—[[6-[[3-(trifluoromethyl)phenyl]methoxy]-2-pyridyl]sulfonyl]-2-(2,2,4-trimethylpyrrolidin-1-yl)pyridine-3-carboxamide] the EC30 was “+++ (“+++” means <3 uM)”. For CCC(CC)Nc1ccc(-c2ccc(C(=O)NS(=O)(=O)c3cccc(N)n3)c(N3[C@H](C)CC[C@@H]3C)n2)cn1 [Compound 1397, N-[(6-amino-2-pyridyl)sulfonyl]-2-[(2R,5S)-2,5-dimethylpyrrolidin-1-yl]-6-[6-(1-ethylpropylamino)-3-pyridyl]pyridine-3-carboxamide], the EC30 was “+++ (“+++” means <3 uM)”. For CC(C)Oc1ccc(-c2ccc(C(=O)NS(=O)(=O)c3ccc(O)c(N)n3)c(N3[C@H](C)CC[C@@H]3C)n2)cn1 [Compound 1375, N-[(6-amino-5-hydroxy-2-pyridyl)sulfonyl]-2-[(2S,5R)-2,5-dimethylpyrrolidin-1-yl]-6-(6-isopropoxy-3-pyridyl)pyridine-3-carboxamide], the EC30 was “++ (“++” means between 3 uM and 10 uM)”. For CC(C)COc1cc(F)cc(-c2ccc(C(=O)NS(=O)(=O)c3cccc(N)n3)c(NCC3(CC(C)(C)O)CC3)n2)c1 [Compound 1723, N-[(6-amino-2-pyridyl)sulfonyl]-6-(3-fluoro-5-isobutoxy-phenyl)-2-[[1-(2-hydroxy-2-methyl-propyl)cyclopropyl]methylamino]pyridine-3-carboxamide], the EC30 was “+++ (“+++” means <3 uM)”. With CC(C)COc1cc(F)cc(-c2ccc(C(=O)NS(=O)(=O)c3ccn[nH]3)c(N3Cc4ccccc4C3)n2)c1 [Compound 981, 6-(3-fluoro-5-isobutoxy-phenyl)-2-isoindolin-2-yl-N-(1H-pyrazol-5-ylsulfonyl)pyridine-3-carboxamide] the EC30 was “++ (“++” means between 3 uM and 10 uM)”. For CCOc1ccc(Oc2cccc(S(=O)(=O)NC(=O)c3cccnc3N3CC(C)CC3(C)C)n2)cc1 (centres unmarked) [Compound 1924, N—[[6-(4-ethoxyphenoxy)-2-pyridyl]sulfonyl]-2-(2,2,4-trimethylpyrrolidin-1-yl)pyridine-3-carboxamide], the EC30 was “+++ (“+++” means <3 uM)”. In the case of CC(C)COc1cc(F)cc(-c2ccc(C(=O)NS(=O)(=O)c3ccn[nH]3)c(NC3CCCC(C(F)(F)F)C3)n2)c1 (centres unmarked) [Compound 1281, 6-(3-fluoro-5-isobutoxy-phenyl)-N-(1H-pyrazol-5-ylsulfonyl)-2-[[3-(trifluoromethyl)cyclohexyl]amino]pyridine-3-carboxamide], the EC30 was “++ (“++” means between 3 uM and 10 uM)”. With CC(C)COc1cc(F)cc(-c2ccc(C(=O)NS(=O)(=O)c3cccc(N)n3)c(OCCCCc3ccccc3)n2)c1 [Compound 1686, N-[(6-amino-2-pyridyl)sulfonyl]-6-(3-fluoro-5-isobutoxy-phenyl)-2-(4-phenylbutoxy)pyridine-3-carboxamide] the EC30 was “+++ (“+++” means <3 uM)”. With CC(C)COc1cc(F)cc(-c2ccc(C(=O)NS(=O)(=O)c3cccc(N)n3)c(OC3CCCCCC3)n2)c1 [Compound 1263, N-[(6-amino-2-pyridyl)sulfonyl]-2-(cycloheptoxy)-6-(3-fluoro-5-isobutoxy-phenyl)pyridine-3-carboxamide] the EC30 was “+++ (“+++” means <3 uM)”. For Cc1cc(C)c(Oc2nc(C3=CCCCO3)ccc2C(=O)NS(=O)(=O)c2cccc(N)n2)c(C)c1 [Compound 937, N-[(6-amino-2-pyridyl)sulfonyl]-6-(3,4-dihydro-2H-pyran-6-yl)-2-(2,4,6-trimethylphenoxy)pyridine-3-carboxamide], the EC30 was “+++ (“+++” means <3 uM)”. For CC1CN(c2ncccc2C(=O)NS(=O)(=O)c2cccc(N3Cc4ccccc4C3)n2)C(C)(C)C1 (centres unmarked) [Compound 1838, N-[(6-isoindolin-2-yl-2-pyridyl)sulfonyl]-2-(2,2,4-trimethylpyrrolidin-1-yl)pyridine-3-carboxamide], the EC30 was “+++ (“+++” means <3 uM)”. For CC(C)(C)c1cc(C(=O)NS(=O)(=O)c2cccc(N)c2)n(Cc2ccc(Cl)cc2Cl)n1 [Compound 797, N-(3-aminophenyl)sulfonyl-5-tert-butyl-2-[(2,4-dichlorophenyl)methyl]pyrazole-3-carboxamide], the EC30 was “+ (“+” means greater than 10 uM)”. In the case of CC1CN(c2nc(C(C)(C)C)c(C3=CCCCO3)cc2C(=O)NS(=O)(=O)c2cccc(N)n2)C(C)(C)C1 (centres unmarked) [Compound 1485, N-[(6-amino-2-pyridyl)sulfonyl]-6-tert-butyl-5-(3,4-dihydro-2H-pyran-6-yl)-2-(2,2,4-trimethylpyrrolidin-1-yl)pyridine-3-carboxamide], the EC30 was “+++ (“+++” means <3 uM)”. With C[C@@H]1CC[C@H](C)N1c1nc(-c2cc(F)cc(OCC3CCC3)c2)ccc1C(=O)NS(=O)(=O)c1ccc[nH]c1=O [Compound 922, 6-[3-(cyclobutylmethoxy)-5-fluoro-phenyl]-2-[(2S,5R)-2,5-dimethylpyrrolidin-1-yl]-N-[(2-oxo-1H-pyridin-3-yl)sulfonyl]pyridine-3-carboxamide] the EC30 was “+++ (“+++” means <3 uM)”. For CC(C)COc1cc(F)cc(-c2ccc(C(=O)NS(=O)(=O)c3cccc(N)n3)c(OC(C)Cc3ccccc3)n2)c1 (centres unmarked) [Compound 967, N-[(6-amino-2-pyridyl)sulfonyl]-6-(3-fluoro-5-isobutoxy-phenyl)-2-(1-methyl-2-phenyl-ethoxy)pyridine-3-carboxamide], the EC30 was “+++ (“+++” means <3 uM)”. In the case of CNc1cc(S(=O)(=O)NC(=O)c2cc(C(C)(C)C)nn2Cc2c(C)cccc2C)ccn1 [Compound 821, 5-tert-butyl-2-[(2,6-dimethylphenyl)methyl]-N-[[12-(methylamino)-4-pyridyl]sulfonyl]pyrazole-3-carboxamide], the EC30 was “++ (“++” means between 3 uM and 10 uM)”. In the case of C[C@@H]1CN(c2nc(-c3cccc(O)c3)ccc2C(=O)NS(=O)(=O)c2cccnc2N)C(C)(C)C1 [Compound 1820, N-[(2-amino-3-pyridyl)sulfonyl]-6-(3-hydroxyphenyl)-2-[(4S)-2,2,4-trimethylpyrrolidin-1-yl]pyridine-3-carboxamide], the EC30 was “++ (“++” means between 3 uM and 10 uM)”. Cc1ccc(-c2ccc(C(=O)NS(=O)(=O)c3cccc(N)n3)c(Oc3c(C)cc(C)cc3C)n2)nc1 [Compound 1290, N-[(6-amino-2-pyridyl)sulfonyl]-6-(5-methyl-2-pyridyl)-2-(2,4,6-trimethylphenoxy)pyridine-3-carboxamide] was tested, and the EC30 was “+++ (“+++” means <3 uM)”. With COc1cc(C(C)=O)ccc1Oc1cccc(S(=O)(=O)NC(=O)c2cccnc2N2CC(C)CC2(C)C)n1 (centres unmarked) [Compound 1744, N—[[6-(4-acetyl-2-methoxy-phenoxy)-2-pyridyl]sulfonyl]-2-(2,2,4-trimethylpyrrolidin-1-yl)pyridine-3-carboxamide] the EC30 was “++ (“++” means between 3 uM and 10 uM)”. Cc1cc(C)c(Oc2nc(-c3cc(F)ccc3O)ccc2C(=O)NS(=O)(=O)c2cccc(N)n2)c(C)c1 [Compound 1049] was tested, and the EC30 was “+++ (“+++” means <3 uM)”. With CC(C)COc1cnn(-c2ccc(C(=O)NS(=O)(=O)c3ccccc3)c(N3C[C@@H](C)CC3(C)C)n2)c1 [Compound 1912, N-(benzenesulfonyl)-6-(4-isobutoxypyrazol-1-yl)-2-[(4S)-2,2,4-trimethylpyrrolidin-1-yl]pyridine-3-carboxamide] the EC30 was “+++ (“+++” means <3 uM)”. In the case of C[C@@H]1CN(c2nc(C(C)(C)C)c(/C=C/C3CCCC3)cc2C(=O)NS(=O)(=O)c2cccc(N)n2)C(C)(C)C1 [Compound 1633, N-[(6-amino-2-pyridyl)sulfonyl]-6-tert-butyl-5-[(E)-2-cyclopentylvinyl]-2-[(4S)-2,2,4-trimethylpyrrolidin-1-yl]pyridine-3-carboxamide], the EC30 was “+++ (“+++” means <3 uM)”. With C[C@@H]1CN(c2nc(-c3ccccc3)ccc2C(=O)NS(=O)(=O)c2cccnc2N)C(C)(C)C1 [Compound 1958, N-[(2-amino-3-pyridyl)sulfonyl]-6-phenyl-2-[(4S)-2,2,4-trimethylpyrrolidin-1-yl]pyridine-3-carboxamide] the EC30 was “+++ (“+++” means <3 uM)”.
